The results in this text go back to US20100285139A1, “PHARMACEUTICAL COMPOSITION FOR THE PROPHYLAXIS AND/OR SYMPTOMATIC TREATMENT OF CYSTIC FIBROSIS” (CYCNAD GMBH & CO., KG, priority 2007, published 2010).

The target in the assay is T1, acid sphingomyelinase (Mus musculus, UniProt Q04519).
T1 construct: from tissue; host or cells: lung homogenate of wild-type and Cftr-deficient mice
T1 sequence (Q04519 45-627): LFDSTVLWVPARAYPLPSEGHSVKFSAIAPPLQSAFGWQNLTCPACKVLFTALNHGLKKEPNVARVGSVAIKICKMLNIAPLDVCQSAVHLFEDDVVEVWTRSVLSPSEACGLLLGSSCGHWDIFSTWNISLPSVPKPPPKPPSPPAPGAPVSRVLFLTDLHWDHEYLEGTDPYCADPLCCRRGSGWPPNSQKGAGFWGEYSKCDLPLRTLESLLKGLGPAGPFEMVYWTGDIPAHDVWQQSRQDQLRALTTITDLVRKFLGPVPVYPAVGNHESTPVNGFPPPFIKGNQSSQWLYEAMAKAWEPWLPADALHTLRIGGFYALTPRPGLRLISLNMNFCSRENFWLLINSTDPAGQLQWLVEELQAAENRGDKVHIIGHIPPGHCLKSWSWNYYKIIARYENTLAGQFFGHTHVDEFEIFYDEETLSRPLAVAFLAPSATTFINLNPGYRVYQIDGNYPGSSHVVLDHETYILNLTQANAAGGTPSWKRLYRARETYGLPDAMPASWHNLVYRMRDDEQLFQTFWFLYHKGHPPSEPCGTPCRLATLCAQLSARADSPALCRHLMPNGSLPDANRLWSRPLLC
Kind of assay: Activity of acid sphingomyelinase in lung extracts of treated mice. In kind it is in vivo. Here is the method:
The inhalation was carried out with the aid of an inhaler (Pariboy® SX). The liquid reservoir in this inhaler was connected to an air nozzle, whereby it was possible to produce a fine aerosol which was inhaled through a mask by the mice. For this, the noses of the experimental animals were pressed manually into the opening of the mask for 10 minutes. This permitted excellent control of the inhalation process. All mice were subjected to an inhalation process 3 times at an interval of 12 hours. The lungs were shock-frozen, homogenized under liquid nitrogen and subsequently transferred to a buffer of 250 mM sodium acetate (pH 5.0), 1.3 mM EDTA and 1% NP40. The homogenizate was then subjected to ultrasound treatment (ultrasonic processor tip sonicator) a total of three times. Subsequently, an aliquot of the samples was diluted with 250 mM sodium acetate (pH 5.0), 1.3 mM EDTA 0.1% NP40 and incubated with 0.05 μCi of [^14C]sphingomyelin per sample (52 mCi/mmol; […] The radioactive sample of [^14C]sphingomyelin was dried, resuspended in 250 mM sodium acetate (pH 5.0), 1.3 mM EDTA and 0.1% NP40 and subsequently subjected to ultrasound treatment for 10 minutes, before it was added to the homogenized samples. The samples were incubated for 30 minutes in total at about 37° C. Subsequently, the enzymatic reaction was ended by extraction (extraction with a solvent mixture of chloroform and methanol in the volume ratio chloroform/methanol 2:1). The samples were then centrifuged and an aliquot of the aqueous phase was in each case subjected to scintillation counting to determine the release of [^14C]phosphorylcholine from [^14C] sphingomyelin. Wild-type mice and Cftr-deficient mice (Cftr-knockout mice) inhaled a solution of 4 mg/l of amitriptyline, 12.5 mg/l of trimipramine, 9 mg/l of desipramine, 8 mg/l of chlorprothixene, 4.5 mg/l of fluoxetine, 5 mg/l of amlodipine and 35 mg/l of sertraline. All substances were dissolved in water or DMSO for this and subsequently diluted at least 1:100 (for DMSO: at least 1:1000) in 0.9% sodium chloride solution. The mice inhaled the solutions for 10 minutes. An inhaler (Pariboy®) was used for the inhalation. In the course of the inhalation time, approximately 2 ml of the solutions administered were atomized. The inhalation was carried out a total of three times at intervals of 12 hours. The lungs were removed 60 minutes after the last inhalation, and the activity of the acid sphingomyelinase was determined in the lung extracts. Wild-type mice and Cftr-deficient mice were in each case inhaled 1 ml of an amitriptyline solution (4 mg/l of H2O) for 20 minutes with the aid of a customary pharmacy inhalation device. The amount of amitriptyline actually administered was therefore about 4 μg. In parallel to this, other wild-type mice and Cftr-deficient mice were in each case administered 100 μl of an amitriptyline solution (2.5 g/l of H2O), so that the amount of amitriptyline actually administered in these animals was 250 μg. The injections were administered twice daily over 2 days. In the case of the inhalative treatment, the lungs of the mice were extracted 60 minutes or 12 hours after ending the inhalation, where in the case of the 12-hour experiments the inhalation was repeated after 6 hours. In the case of the mice treated by an injection solution, their lungs were removed 12 hours after the last injection.

For `CN(C)CCC=C1c2ccccc2CCc2ccccc21` [amitriptyline], the “enzyme activity of acid sphingomyelinase in lung extracts” value reads like this: (Cftr-deficient mice, 12 h after intraperitoneal injection of 250 micrograms, twice daily over 2 days) 151±17 pmol/min/mg of protein; (Cftr-deficient mice, lungs extracted 60 min after inhalation of 1 ml amitriptyline solution (4 mg/l)) 148±17 pmol/min/mg of protein; (Cftr-deficient mice, lungs extracted 12 h after inhalation of 1 ml amitriptyline solution (4 mg/l)) 167±9 pmol/min/mg of protein; (wild-type mice, 12 h after intraperitoneal injection of 250 micrograms, twice daily over 2 days) 168±19 pmol/min/mg of protein; (wild-type mice, lungs extracted 60 min after inhalation of 1 ml amitriptyline solution (4 mg/l)) 176±18 pmol/min/mg of protein; (wild-type mice, lungs extracted 12 h after inhalation of 1 ml amitriptyline solution (4 mg/l)) 200±14 pmol/min/mg of protein.
